# According to patent US5480885A, “Ergoline derivatives of 1-propinylamine, a process for the manufacture thereof and the use thereof for medicaments” (priority 1991, dated 1996):
# Entries after “also recorded” stand apart in the source; their conditions may differ. Like-named read-outs stand apart in the source and are kept apart here.
# What was measured:
# [1] = system: isolated rat uterus (serotonin); test: inhibition of serotonin-induced contractions of the isolated rat uterus; settings: serotonin-induced contractions (serotonin 2.47×10^-8 M where printed)
# [2] = spontaneous motor activity in mice; type: in vivo; settings: mouse, in vivo, ip; mice; read-out: ID50, inhibition of spontaneous motor activity
# mice = test: spontaneous motor activity in mice; type: in vivo; settings: two models (motor activity and pentobarbital anesthesia); vs haloperidol; in words
# 5-HT2 receptors = molecular target: T1, 5-HT2 receptors (Mus musculus, UniProt P35363); test: inhibition of the head twitch response after 5-HTP/carbidopa; type: in vivo, mice; settings: ip; for ED50: mice, read-out: ID50, inhibition of head twitch response
# T1 construct: The head twitch model in mice; from tissue; host or cells: living mice (central nervous system)
# Experimental: The substance was injected 15 minutes prior to DL-5-HTP. The head twitch was recorded from 30 to 35 minutes after the DL-5-HTP injection (modified method according to Handley and Singh, Br. J. Pharmacol. 86, 297 (1985)).
# The compound was injected 15 minutes prior to L-5-HTP (modified method according to Handley and Singh, Br. J. Pharmacol. 86, 297 (1985)).
# The head twitch model in mice represents an experimental model for determining the hallucinogenic action of a compound (the method was described by Handley and Singh, Br.J.Pharmacol., 86, 297-303, 1985). It is believed that the response is conveyed via the 5-HT2 receptors.
# D1 receptor = D1 receptor (Homo sapiens, UniProt P21728); test: binding, [^3 H]SCH23390
# Description: (§1) Binding affinities of the compounds of Examples 5
# [3] = prolongation of pentobarbital-induced anesthesia in mice; settings: mouse, in vivo, ip
# D2 receptors [4] = molecular target: T2, D2 receptors (Mus musculus, UniProt P61168); test: apomorphine-induced climbing in mice; type: in vivo; settings: ip, -30 min., apomorphine 1.5 mg/kg s.c., read-out: ID50, climbing behavior
# T2 construct: from tissue; host or cells: living mice (central nervous system)
# Experimental: The application of apomorphine in a dose of 1.5 mg/kg s.c. caused a characteristic climbing behavior in mice.
# [5] = blood pressure and heart rate in pentobarbital-anesthetized normotensive rats; type: in vivo, rat; settings: rat, in vivo, iv; normotensive rats, pentobarbital-induced anesthesia; read-out: ED50, decrease of the mean arterial blood pressure
# [6] = system: pentobarbital-anesthetized normotensive rats; test: as above; type: in vivo, rat; settings: 450 μg/kg i.v.; for effect on carotid artery pressure / effect on heart rate: in words
# 5-HT2 receptor = 5-HT2 receptor (Homo sapiens, UniProt P28223); test: biochemical; type: binding; settings: for Ki: 5-HT2, [^3 H]Ketanserin, read-out: Ki; for affinity for 5-HT2 receptors: in words
# Description: (§2) Binding affinities of the compounds of Examples 1
# sigma receptor [7] = test: functional test, sigma receptor; settings: in words
# [8] = molecular target: T3, 5-HT1A serotoninergic receptor (Homo sapiens, UniProt P08908); test: binding at [^3 H] 8-OH-DPAT binding site; settings: for affinity to 5-HT1A receptor: [^3 H] 8-OH-DPAT, in words
# T3 sequence (P08908 1-422): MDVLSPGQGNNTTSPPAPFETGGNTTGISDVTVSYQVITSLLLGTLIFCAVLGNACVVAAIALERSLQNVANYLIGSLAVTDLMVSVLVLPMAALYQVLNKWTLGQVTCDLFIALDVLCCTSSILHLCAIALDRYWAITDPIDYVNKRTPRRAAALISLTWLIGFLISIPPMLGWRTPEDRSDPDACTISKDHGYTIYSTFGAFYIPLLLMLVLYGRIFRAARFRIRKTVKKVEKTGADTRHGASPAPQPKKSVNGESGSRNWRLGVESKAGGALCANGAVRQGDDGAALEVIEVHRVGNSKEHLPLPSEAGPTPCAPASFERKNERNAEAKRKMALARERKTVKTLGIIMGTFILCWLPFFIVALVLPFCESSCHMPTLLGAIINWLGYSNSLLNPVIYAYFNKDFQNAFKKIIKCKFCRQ
# Description: as §2
# D2 receptors [9] = molecular target: T4, D2 receptors (Rattus norvegicus, UniProt P61169); test: apomorphine-induced locomotion; type: in vivo; settings: sc, -45 min., apomorphine 0.4 mg/kg s.c., rats, read-out: ID50, apomorphine-induced locomotion
# T4 construct: from tissue; host or cells: living rats (central nervous system)
# [10] = molecular target: T5, isolated rabbit thoracic aorta (serotonin) (Oryctolagus cuniculus, UniProt G1SYA7)
# T5 construct: isolated rabbit thoracic aorta; from tissue; host or cells: isolated rabbit thoracic aorta
# D2 receptor = D2 receptor (Homo sapiens, UniProt P14416); test: binding, [^3 H]Raclopride; settings: for Ki: D2, [^3 H]Raclopride; for affinity for D2 receptors: in words
# Description: as §2
# sigma receptor [11] = test: binding at [^3 H] DTG binding site; settings: in words
# [12] = overall antipsychotic action and side-effect profile (summary statements); type: in vivo; settings: in words
# α1 receptors = test: noradrenaline-induced lethality in rats; type: in vivo, rat; settings: s.c.
# [13] = molecular target: T3, 5-HT1A serotoninergic receptor; test: functional test, 5-HT1A serotoninergic receptor; settings: in words
# α1 receptor = test: binding, [^3 H]Prazosin
# Description: as §1
# pithed rats = test: vasoconstriction / diastolic pressure in pithed rats (Gillespie); type: in vivo, rat; settings: 450 μg/kg i.v.; for peripheral vasoconstriction: in words
# [14] = system: isolated rabbit thoracic aorta (noradrenaline); test: inhibition of the constrictive activity of noradrenaline on the isolated rabbit thoracic aorta
# catalepsy in rats = type: in vivo, rat; settings: rat, in vivo, sc; rats
# Experimental: (§3) The s.c. application of the compounds of Example 5 (0.5 to 16 mg/kg) and of Example 8 (0.125 to 4 mg/kg), respectively, caused catalepsy in rats (the method was described by Morelli and Chiara, Europ. J. Pharmacol. 117, 179-185, 1985).
# rats = test: catalepsy in rats; type: in vivo, rat; settings: in words
# Experimental: as §3
# isolated rat uterus = test: uterotonic activity (isolated rat uterus); settings: in words
# 5-HT1A receptors = test: spontaneous tail-flicks in rats; type: in vivo, rat; settings: in words
# pupil = test: dilatation of the pupil in mice (Pulewka); type: in vivo; settings: in words
# [15] = system: isolated rabbit thoracic aorta; test: constriction of the isolated rabbit thoracic aorta
# 5-HT2 receptor, sequence (P28223 whole entry): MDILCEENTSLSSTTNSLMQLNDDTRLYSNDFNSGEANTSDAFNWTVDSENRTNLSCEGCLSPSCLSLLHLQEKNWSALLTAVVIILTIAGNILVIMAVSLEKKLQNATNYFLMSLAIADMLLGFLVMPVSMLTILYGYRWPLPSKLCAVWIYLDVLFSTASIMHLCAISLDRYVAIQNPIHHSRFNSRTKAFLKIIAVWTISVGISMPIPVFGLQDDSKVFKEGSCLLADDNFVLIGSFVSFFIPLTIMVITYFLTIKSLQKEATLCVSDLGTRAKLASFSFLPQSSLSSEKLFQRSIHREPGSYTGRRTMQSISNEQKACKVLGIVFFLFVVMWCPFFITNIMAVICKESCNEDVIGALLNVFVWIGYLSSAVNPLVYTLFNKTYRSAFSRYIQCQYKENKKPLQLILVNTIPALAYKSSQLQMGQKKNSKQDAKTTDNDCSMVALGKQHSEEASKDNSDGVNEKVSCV
# T1 sequence (P35363 whole entry): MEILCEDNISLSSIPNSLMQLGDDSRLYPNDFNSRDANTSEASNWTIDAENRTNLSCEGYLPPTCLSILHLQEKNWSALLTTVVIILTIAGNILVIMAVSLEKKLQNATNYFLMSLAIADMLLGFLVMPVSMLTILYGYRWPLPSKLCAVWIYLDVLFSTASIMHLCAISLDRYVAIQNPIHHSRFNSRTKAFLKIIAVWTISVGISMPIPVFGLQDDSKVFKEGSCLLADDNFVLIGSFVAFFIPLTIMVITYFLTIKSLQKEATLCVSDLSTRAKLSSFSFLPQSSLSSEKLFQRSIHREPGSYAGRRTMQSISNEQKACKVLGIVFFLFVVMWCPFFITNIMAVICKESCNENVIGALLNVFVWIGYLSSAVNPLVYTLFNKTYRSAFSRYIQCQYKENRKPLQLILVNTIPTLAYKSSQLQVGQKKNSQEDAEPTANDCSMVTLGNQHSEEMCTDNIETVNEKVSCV
# D2 receptor, sequence (P14416 whole entry): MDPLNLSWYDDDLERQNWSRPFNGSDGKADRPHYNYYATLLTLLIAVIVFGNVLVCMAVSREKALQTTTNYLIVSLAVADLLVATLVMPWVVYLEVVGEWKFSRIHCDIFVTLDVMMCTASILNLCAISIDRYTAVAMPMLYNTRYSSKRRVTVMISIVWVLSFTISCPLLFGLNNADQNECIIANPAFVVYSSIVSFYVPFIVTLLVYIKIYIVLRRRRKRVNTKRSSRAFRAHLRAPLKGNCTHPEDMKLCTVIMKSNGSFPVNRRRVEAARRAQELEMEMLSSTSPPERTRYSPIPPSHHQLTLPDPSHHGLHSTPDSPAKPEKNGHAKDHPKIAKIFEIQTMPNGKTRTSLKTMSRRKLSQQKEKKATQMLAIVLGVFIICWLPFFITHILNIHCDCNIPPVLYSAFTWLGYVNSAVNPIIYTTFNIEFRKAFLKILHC
# D1 receptor, sequence (P21728 whole entry): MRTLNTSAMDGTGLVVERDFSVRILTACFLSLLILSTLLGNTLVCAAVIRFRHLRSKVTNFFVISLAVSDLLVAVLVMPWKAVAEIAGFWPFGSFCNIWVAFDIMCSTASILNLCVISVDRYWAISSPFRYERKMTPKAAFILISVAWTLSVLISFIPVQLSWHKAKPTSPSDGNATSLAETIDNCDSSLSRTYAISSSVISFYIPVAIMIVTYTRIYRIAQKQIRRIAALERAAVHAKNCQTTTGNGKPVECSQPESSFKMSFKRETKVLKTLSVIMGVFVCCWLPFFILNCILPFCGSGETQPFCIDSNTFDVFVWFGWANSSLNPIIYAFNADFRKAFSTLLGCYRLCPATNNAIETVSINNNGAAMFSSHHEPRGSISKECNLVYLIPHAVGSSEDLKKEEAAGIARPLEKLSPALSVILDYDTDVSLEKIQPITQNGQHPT
# T5 sequence (G1SYA7 entry or part of it): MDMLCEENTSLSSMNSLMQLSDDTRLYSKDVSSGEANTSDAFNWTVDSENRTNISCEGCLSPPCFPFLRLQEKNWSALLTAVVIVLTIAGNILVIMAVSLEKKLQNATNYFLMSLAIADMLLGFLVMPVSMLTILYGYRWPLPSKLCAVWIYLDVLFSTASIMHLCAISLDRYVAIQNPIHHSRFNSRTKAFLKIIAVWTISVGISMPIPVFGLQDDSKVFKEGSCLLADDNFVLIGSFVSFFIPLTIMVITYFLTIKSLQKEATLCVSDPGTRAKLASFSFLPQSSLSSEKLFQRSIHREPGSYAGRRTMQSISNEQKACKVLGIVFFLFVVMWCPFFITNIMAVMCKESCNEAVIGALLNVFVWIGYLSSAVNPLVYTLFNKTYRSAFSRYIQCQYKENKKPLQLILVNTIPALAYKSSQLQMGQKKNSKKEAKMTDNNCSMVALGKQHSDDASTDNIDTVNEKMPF
# T4 sequence (P61169 whole entry): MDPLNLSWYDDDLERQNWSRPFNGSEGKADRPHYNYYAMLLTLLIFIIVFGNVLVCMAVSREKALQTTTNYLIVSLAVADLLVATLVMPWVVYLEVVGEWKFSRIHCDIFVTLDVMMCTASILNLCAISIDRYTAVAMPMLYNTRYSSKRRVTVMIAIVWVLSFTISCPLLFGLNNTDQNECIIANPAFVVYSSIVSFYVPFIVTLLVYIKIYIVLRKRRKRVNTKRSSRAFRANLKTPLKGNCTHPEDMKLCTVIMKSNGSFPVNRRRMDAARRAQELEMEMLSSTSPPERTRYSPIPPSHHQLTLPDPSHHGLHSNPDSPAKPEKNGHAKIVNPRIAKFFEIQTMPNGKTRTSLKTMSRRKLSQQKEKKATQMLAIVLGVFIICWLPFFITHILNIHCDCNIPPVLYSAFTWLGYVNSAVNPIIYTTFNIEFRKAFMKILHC
# T2 sequence (P61168 whole entry): as the sequence (P61169 whole entry) above, with A29P counted along it
smiles,measurement,setting,value
"C#CCN(C)C(=O)[C@@H]1C=C2c3cccc4[nH]c(Br)c(c34)C[C@H]2N(C)C1 [Example 5, 2-Bromo-9,10-didehydro-N-methyl-N-(2'-propinyl)-6-methylergoline-8β-carboxamide]",IC50,[1],12.5 nM
same,ED50,[2],12.5 mg/kg
same,depressant action on the level of CNS,mice,several times lower depressant action on the level of CNS if compared with haloperidol
same,ED50,"5-HT2 receptors; L-5-HTP/carbidopa, 15 minutes prior",3.8 mg/kg
same,Ki,"D1 receptor; D1, [^3 H]SCH23390",97 nM
same,affinity for D1 receptors,D1 receptor; in words,lower
same,ED50,[3],9.2 mg/kg
same,ED50,D2 receptors [4],6.89 mg/kg
same,ED50,[5],0.42 mg/kg
same,effect on carotid artery pressure,[6],"small, yet statistically significant decrease in carotid artery pressure and heart rate"
same,effect on heart rate,[6],"small, yet statistically significant decrease in carotid artery pressure and heart rate"
same,maximum reduction in carotid artery pressure,[6]; vs initial level,10%
same,reduction in heart rate,[6]; vs initial level,10%
same,Ki,5-HT2 receptor,18 nM
same,affinity for 5-HT2 receptors,5-HT2 receptor,high affinity
same,functional activity at sigma receptor,sigma receptor [7],indicated an antagonistic activity
same,affinity to 5-HT1A receptor,[8],possessed affinity
same,ED50,D2 receptors [9],0.66 mg/kg
same,mode of inhibition of serotonin constriction,[10]; in words,competitively inhibited
same,Kb,"[10]; vs serotonin, read-out: pA2 (converted)",11.7 nM
same,Ki,D2 receptor,2.3 nM
same,affinity for D2 receptors,D2 receptor,high affinity
same,affinity to sigma receptor,sigma receptor [11],possessed affinity
same,antipsychotic action,[12],strongest antipsychotic action
same,"ID50, noradrenaline-induced lethality",α1 receptors,5.11 mg/kg
same,functional activity at 5-HT1A,[13],did not indicate any activity
same,affinity for α1 receptors,α1 receptor; in words,lower
same,Ki,"α1 receptor; α1, [^3 H]Prazosin",29 nM
same,peripheral vasoconstriction,pithed rats,slowly developing peripheric vasoconstriction
same,"peripheric vasoconstriction, increase",pithed rats; vs control,20%
same,mode of inhibition of noradrenaline constriction,[14]; in words,competitively inhibited
same,pA2,[14]; vs noradrenaline,6.45
same,ED50,catalepsy in rats,1.4 mg/kg
same,cataleptic action compared with haloperidole,rats,lesser than the action caused by the typical antipsychotic haloperidole
same,uterotonic activity,isolated rat uterus,no uterotonic activity
"C#CCNC(=O)[C@@H]1C=C2c3cccc4[nH]cc(c34)C[C@H]2N(C)C1 [Example 1, 9,10-Didehydro-N-(2'-propinyl)-6-methylergoline-8β-carboxamide]",inhibition at 4 mg/kg,"5-HT2 receptors; 4 mg/kg i.p., D,L-5-hydroxytryptophan/carbidopa, 15 minutes prior",62%
same,ED50,5-HT2 receptors; 5-hydroxytryptophan/carbidopa,0.74 mg/kg
same,exitus,[6],followed by exitus
same,time to onset of reduction in pressure and heart rate,[6],Approximately 2 minutes
same,effect on carotid artery pressure,[6],a strong reduction in the carotid artery pressure and heart rate
same,effect on heart rate,[6],a strong reduction in the carotid artery pressure and heart rate
same,Ki,5-HT2 receptor,64 nM
same,affinity for 5-HT2 receptors,5-HT2 receptor,high affinity
same,functional activity at sigma receptor,sigma receptor [7],indicated an antagonistic activity
same,Ki,"[8]; 5-HT1A, [^3 H]8-OH-DPAT",1 nM
same,affinity to 5-HT1A receptor,[8],high affinity; also recorded: possessed affinity
same,Ki,D2 receptor,151 nM
same,affinity for D2 receptors,D2 receptor,lower affinity
same,spontaneous tail-flick,"5-HT1A receptors; 0.08 to 0.63 mg/kg s.c. (Example 1), 5.0 mg/kg s.c. (Example 2)",provoked a dose- and time-dependent spontaneous tail-flick in rats
same,tail-flick effect compared with 8-OH-DPAT,5-HT1A receptors; s.c.,very similar to that caused by the selective 5-HT1A agonist 8-OH-DPAT
same,affinity to sigma receptor,sigma receptor [11],possessed affinity
same,dilatation of the pupil,pupil; 5 mg/kg i.p.,very strong dilatation of the pupil
same,time course of effect,pupil; 5 mg/kg i.p.,After 60 minutes the effect was quickly reduced
same,behavioural effects in mice,pupil,"The mice became agitated, piloerection, tremor and excitation took place"
same,functional activity at 5-HT1A,[13],indicated an agonistic activity
same,peripheral vasoconstriction,pithed rats,"transient, yet very strong peripheral vasoconstriction"
same,receptors responsible for vasoconstriction,[15]; 1 μM,the result of the activation of α1 -adrenergic receptors
same,constriction of the isolated rabbit thoracic aorta,[15]; in words,caused a constriction of the isolated rabbit thoracic aorta
same,"intrinsic activity, aorta constriction","[15]; in words, vs serotonin",comparable to that of serotonin
same,uterotonic activity,isolated rat uterus,no uterotonic activity
"O=C(CCCN1CCC(O)(c2ccc(Cl)cc2)CC1)c1ccc(F)cc1 [haloperidole, reference compound]",ED50,catalepsy in rats,0.019 mg/kg
